The target of the assay is T1, hFXR (Homo sapiens, UniProt Q96RI1).
T1 construct: expressed in transfected cells; host or cells: CV-1 cells
T1 sequence (Q96RI1 1-486): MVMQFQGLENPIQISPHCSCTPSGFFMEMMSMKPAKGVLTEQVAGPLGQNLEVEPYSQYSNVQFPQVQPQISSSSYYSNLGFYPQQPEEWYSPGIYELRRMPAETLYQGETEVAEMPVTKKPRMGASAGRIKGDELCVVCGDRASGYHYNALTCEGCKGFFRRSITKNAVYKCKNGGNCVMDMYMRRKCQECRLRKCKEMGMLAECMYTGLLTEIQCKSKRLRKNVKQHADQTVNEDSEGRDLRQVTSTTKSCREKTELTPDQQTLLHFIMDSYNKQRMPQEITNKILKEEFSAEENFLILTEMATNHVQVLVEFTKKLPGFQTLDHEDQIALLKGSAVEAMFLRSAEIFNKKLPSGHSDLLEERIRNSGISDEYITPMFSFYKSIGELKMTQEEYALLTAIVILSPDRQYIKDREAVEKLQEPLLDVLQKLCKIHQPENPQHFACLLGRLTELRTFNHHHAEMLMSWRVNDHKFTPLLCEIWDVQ
T1 sequence (P19793 1-462 partner): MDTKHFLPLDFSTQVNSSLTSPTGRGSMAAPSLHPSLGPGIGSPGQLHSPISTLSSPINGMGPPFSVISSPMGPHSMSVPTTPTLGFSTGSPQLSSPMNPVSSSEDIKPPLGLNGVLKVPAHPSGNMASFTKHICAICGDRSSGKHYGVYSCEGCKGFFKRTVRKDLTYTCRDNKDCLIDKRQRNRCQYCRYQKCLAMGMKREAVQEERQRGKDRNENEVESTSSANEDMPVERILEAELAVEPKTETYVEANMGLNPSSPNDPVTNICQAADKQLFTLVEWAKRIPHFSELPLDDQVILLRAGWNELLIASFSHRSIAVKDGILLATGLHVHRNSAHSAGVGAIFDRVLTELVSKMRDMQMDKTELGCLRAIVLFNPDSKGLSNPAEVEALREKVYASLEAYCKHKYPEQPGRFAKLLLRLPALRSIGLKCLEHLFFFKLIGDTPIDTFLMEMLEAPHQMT
The experiment in a line: In Vitro FXR Assay (TK): TK-ECRE-luc reporter in transfected CV-1 cells. To be noted: 18 hrs incubation, luminescence. It is filed as cell-based. The procedure, abridged:
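Reporter gene assay: CV-1 cells co-expressing hFXR, hRXR, TK-ECRE-luc and pCMX-YFP after overnight transfection in charcoal-stripped serum. Treatment with serially diluted compounds lasted 18 hrs at 37 °C, followed by cell lysis and a luminescence measurement.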
Turning to `COc1ccc([C@H]2CC[C@H](CN(c3cccc(-c4cnn(C(C)C)c4)c3)C(=O)[C@H]3CC[C@H](OC(=O)NCCCF)CC3)CC2)cc1C` [Compound 5.04, trans-4-((3-(1-Isopropyl-1H-pyrazol-4-yl)phenyl)(((trans)-4-(4-methoxy-3-methylphenyl)cyclohexyl)methyl)carbamoyl)cyclohexyl (3-fluoropropyl)carbamate], the EC50 was ≤ 50 nM.
As for `COc1ccc([C@H]2CC[C@H](CN(c3cccc(-c4cnn(C(C)C)c4)c3)C(=O)[C@H]3CC[C@H](OC(=O)NCC(C)F)CC3)CC2)cc1C` (stereo partly drawn) [Compound 5.05, trans-4-((3-(1-Isopropyl-1H-pyrazol-4-yl)phenyl)(((trans)-4-(4-methoxy-3-methylphenyl)cyclohexyl)methyl)carbamoyl)cyclohexyl (2-fluoropropyl)carbamate], the EC50 is ≤ 50 nM.
As to `COc1ccc([C@H]2CC[C@H](CN(c3cccc(-c4cnn(C(C)C)c4)c3)C(=O)[C@H]3CC[C@H](OC(=O)NCC(C)(F)F)CC3)CC2)cc1C` [Compound 5.06, trans-4-((3-(1-Isopropyl-1H-pyrazol-4-yl)phenyl)(((trans)-4-(4-methoxy-3-methylphenyl)cyclohexyl)methyl)carbamoyl)cyclohexyl (2,2-difluoropropyl)carbamate], the EC50 is ≤ 50 nM.
On to `COc1ccc([C@H]2CC[C@H](CN(c3cccc(-c4cnn(C(C)C)c4)c3)C(=O)[C@H]3CC[C@H](OC(=O)NC[C@H](F)CO)CC3)CC2)cc1C` [Compound 5.07, trans-4-((3-(1-Isopropyl-1H-pyrazol-4-yl)phenyl)(((trans)-4-(4-methoxy-3-methylphenyl)cyclohexyl)methyl)carbamoyl)cyclohexyl ((S)-2-fluoro-3-hydroxypropyl) carbamate], for which the EC50 was ≤ 50 nM.
Regarding `COc1ccc([C@H]2CC[C@H](CN(c3cccc(-c4cnn(C(C)C)c4)c3)C(=O)[C@H]3CC[C@H](OC(=O)N4CCN(C)CC4)CC3)CC2)cc1C#N` [Compound 5.08, trans-4-((((trans)-4-(3-Cyano-4-methoxyphenyl)cyclohexyl)methyl)(3-(1-isopropyl-1H-pyrazol-4-yl)phenyl)carbamoyl)cyclohexyl4-methylpiperazine-1-carboxylate], the EC50 was ≤ 50 nM.
`COc1ccc([C@H]2CC[C@H](CN(c3cccc(-c4cnn(C(C)C)c4)c3)C(=O)[C@H]3CC[C@H](OC(=O)NCC(C)(C)O)CC3)CC2)cc1C#N` [Compound 5.09, trans-4-((((trans)-4-(3-Cyano-4-methoxyphenyl)cyclohexyl)methyl)(3-(1-isopropyl-1H-pyrazol-4-yl)phenyl)carbamoyl) cyclohexyl(2-hydroxy-2-methylpropyl)carbamate]: the EC50 was ≤ 50 nM.
The figure for `COc1ccc([C@H]2CC[C@H](CN(c3cccc(-c4cnn(C(C)C)c4)c3)C(=O)[C@H]3CC[C@H](OC(=O)NC(C)C)CC3)CC2)cc1C` [Compound 5.10, trans-4-((3-(1-Isopropyl-1H-pyrazol-4-yl)phenyl)((trans-4-(4-methoxy-3-methylphenyl)cyclohexyl)methyl)carbamoyl)cyclohexyl isopropylcarbamate] is ≤ 50 nM.
As for `COc1ccc([C@H]2CC[C@H](CN(c3cccc(-c4cnn(C(C)C)c4)c3)C(=O)[C@H]3CC[C@H](OC(=O)N4CCN(C)CC4)CC3)CC2)cc1C` [Compound 5.11, trans-4-((3-(1-Isopropyl-1H-pyrazol-4-yl)phenyl)((trans-4-(4-methoxy-3-methylphenyl)cyclohexyl)methyl)carbamoyl)cyclohexyl 4-methylpiperazine-1-carboxylate], the EC50 was ≤ 50 nM.
Consider `COc1ccc([C@H]2CC[C@H](CN(c3cccc(-c4cnn(C(C)C)c4)c3)C(=O)[C@H]3CC[C@H](OC(=O)NCC(C)(C)O)CC3)CC2)cc1C` [Compound 5.12, trans-4-((3-(1-Isopropyl-1H-pyrazol-4-yl)phenyl)((trans-4-(4-methoxy-3-methylphenyl)cyclohexyl)methyl)carbamoyl)cyclohexyl (2-hydroxy-2-methylpropyl)carbamate], for which the EC50 is ≤ 50 nM.
The figure for `Cn1ccc2nc([C@H]3CC[C@H](CN(c4cccc(-c5cnc(C6CC6)s5)c4)C(=O)[C@H]4CC[C@H](OC(=O)N5CC(O)C5)CC4)CC3)ccc21` [Compound 5.13, trans-4-((3-(2-Cyclopropylthiazol-5-yl)phenyl)(((trans)-4-(1-methyl-1H-pyrrolo[3,2-b]pyridin-5-yl)cyclohexyl)methyl)carbamoyl) cyclohexyl 3-hydroxyazetidine-1-carboxylate] is ≤ 50 nM; for `O=C(O[C@H]1CC[C@H](C(=O)N(C[C@H]2CC[C@H](c3cc4ccccn4c3)CC2)c2cccc(-c3cnc(C4CC4)s3)c2)CC1)N1CC(O)C1` [Compound 5.14, trans-4-((3-(2-Cyclopropylthiazol-5-yl)phenyl)((trans-4-(indolizin-2-yl)cyclohexyl)methyl)carbamoyl) cyclohexyl 3-hydroxyazetidine-1-carboxylate] it is ≤ 50 nM; for `CS(=O)(=O)c1ccc([C@H]2CC[C@H](CN(c3cccc(-c4cnc(C5CC5)s4)c3)C(=O)[C@H]3CC[C@H](OC(=O)N4CC(O)C4)CC3)CC2)cc1` [Compound 5.15, trans-4-((3-(2-Cyclopropylthiazol-5-yl)phenyl)((trans-4-(4-(methylsulfonyl)phenyl)cyclohexyl)methyl)carbamoyl)cyclohexyl 3-hydroxyazetidine-1-carboxylate] it is 50 to 1000 nM.
Then `COC(=O)N[C@H]1CC[C@H](C(=O)N(C[C@H]2CC[C@H](c3ccc(OC)c(C)c3)CC2)c2cccc(-c3cnn(C(C)C)c3)c2)CC1` [Compound 6, Methyl (trans-4-((3-(1-isopropyl-1H-pyrazol-4-yl)phenyl)((trans-4-(4-methoxy-3-methylphenyl)cyclohexyl)methyl)carbamoyl)cyclohexyl)carbamate], with ≤ 50 nM.
The figure for `CCOC(=O)N[C@H]1CC[C@H](C(=O)N(C[C@H]2CC[C@H](c3ccc(OC)c(C)c3)CC2)c2cccc(-c3cnn(C(C)C)c3)c2)CC1` [Compound 6.01, Ethyl (trans-4-((3-(1-isopropyl-1H-pyrazol-4-yl)phenyl)((trans-4-(4-methoxy-3-methylphenyl)cyclohexyl)meth-yl)carbamoyl)cyclohexyl)carbamate] is ≤ 50 nM.
Consider `COc1ccc([C@H]2CC[C@H](CN(c3cccc(-c4cnn(C(C)C)c4)c3)C(=O)[C@H]3CC[C@H](NC(=O)OC(C)C)CC3)CC2)cc1C` [Compound 6.02, Isopropyl (trans-4-((3-(1-isopropyl-1H-pyrazol-4-yl)phenyl)((trans-4-(4-methoxy-3-methylphenyl)cyclohexyl)meth-yl)carbamoyl)cyclohexyl)carbamate], for which the EC50 is ≤ 50 nM.
Then `COc1ccc([C@H]2CC[C@H](CN(c3cccc(-c4cnn(C(C)C)c4)c3)C(=O)[C@H]3CC[C@H](NC(=O)OCCO)CC3)CC2)cc1C` [Compound 6.03, 2-Hydroxyethyl (trans-4-((3-(1-isopropyl-1H-pyrazol-4-yl)phenyl)((trans-4-(4-methoxy-3-methylphenyl)cyclohexyl)meth-yl)carbamoyl)cyclohexyl)carbamate], with ≤ 50 nM.
Turning to `COCCOC(=O)N[C@H]1CC[C@H](C(=O)N(C[C@H]2CC[C@H](c3ccc(OC)c(C)c3)CC2)c2cccc(-c3cnn(C(C)C)c3)c2)CC1` [Compound 6.04, 2-Methoxyethyl (trans-4-((3-(1-isopropyl-1H-pyrazol-4-yl)phenyl)((trans-4-(4-methoxy-3-methylphenyl)cyclohexyl)meth-yl)carbamoyl)cyclohexyl)carbamate], the EC50 was ≤ 50 nM.
`COc1ccc([C@H]2CC[C@H](CN(c3cccc(-c4cnn(C(C)C)c4)c3)C(=O)[C@H]3CC[C@H](NC(=O)OC4COC4)CC3)CC2)cc1C` [Compound 6.05, Oxetan-3-yl (trans-4-((3-(1-isopropyl-1H-pyrazol-4-yl)phenyl)((trans-4-(4-methoxy-3-methylphenyl)cyclohexyl)meth-yl)carbamoyl)cyclohexyl)carbamate]: the EC50 is ≤ 50 nM.
Then `COc1ccc([C@H]2CC[C@H](CN(c3cccc(-c4cnn(C(C)C)c4)c3)C(=O)[C@H]3CC[C@H](NC(=O)OC4CCOCC4)CC3)CC2)cc1C` [Compound 6.06, Tetrahydro-2H-pyran-4-yl (trans-4-((3-(1-isopropyl-1H-pyrazol-4-yl)phenyl)((trans-4-(4-methoxy-3-methylphenyl)cyclohexyl)meth-yl)carbamoyl)cyclohexyl)carbamate], with ≤ 50 nM.

By EC50 is commonly meant the midpoint of the concentration-response curve. A lower EC50 goes with higher potency in that assay.

Source of the values: patent US20220056019A1, “FARNESOID X RECEPTOR AGONISTS AND USES THEREOF” (Metacrine, Inc., priority 2018, published 2022).
